Assay results taken from a compilation of properties of binary mixtures (doi:10.1021/je060126x).

Assay: xn = mol fraction of the nth substance listed
Details: 298.15 K, 101 kPa

CCOS(=O)(=O)[O-].CC[n+]1ccn(C)c1 + CCO
Details	speed of sound [m/s]	viscosity [mPa·s]
x2 = 0.1271	1657	65.5
x2 = 0.1281	1655	66.1
x2 = 0.2039	1636	49.8
x2 = 0.3088	1603	34.69
x2 = 0.3256	1598	32.21
x2 = 0.3598	1586	28.75
x2 = 0.4147	1566	22.88
x2 = 0.4336	1558	21.39
x2 = 0.4604	1545	18.98
x2 = 0.5103	1525	15.4
x2 = 0.5223	1516	14.78
x2 = 0.5724	1490	11.74
x2 = 0.5926	1480	10.83
x2 = 0.5951	1467	10.65
x2 = 0.712	1407	6.13
x2 = 0.7174	1406	5.98
x2 = 0.7676	1369	4.68
x2 = 0.806	1339	3.86
x2 = 0.8666	1286	2.709
x2 = 0.9026	1253	2.189
x2 = 0.9062	1248	2.138
x2 = 0.9504	1202	1.628
x2 = 0.9522	1200	1.589
